Laboratory results from patent US8846684B2 (priority 2011, dated 2014).
Read-outs that look alike come from different tables or passages of the source.

Assays:
[1] = tested on: vaccine strain of Venezuelan equine encephalitis virus (VEEV); conditions: mouse, in vivo; cited from earlier work
wild-type VEEV = conditions: in vivo; cited from earlier work
NSV = format: cell-based, neuroadapted Sindbis virus
WEEV = format: cell-based, Western equine encephalitis virus
WEEV replicon = experiment: microbe, parasite or virus in culture; format: cell-based, Western equine encephalitis virus
[2] = Western equine encephalitis virus, read-out: Activity IC50 (μM)
[3] = Western equine encephalitis virus; read-out: Activity (% control LUC) 2 μM
[4] = Western equine encephalitis virus; read-out: Activity (% control LUC) 10 μM
[5] = Western equine encephalitis virus; read-out: Activity (% control LUC) 50 μM
[6] = Western equine encephalitis virus; read-out: 50 μM (% control) Luc
[7] = Western equine encephalitis virus

(−)-carbodine
disease outcome [1]: improved outcome | lowering of peak CNS viral titers [1]: half-log | benefit following wild-type VEEV challenge (wild-type VEEV): no benefit

O=C(NCc1ccccc1)C1CCN(C(=O)c2cc3ccccc3n2Cc2ccc(Cl)cc2)CC1 [CCG 102516, N-benzyl-1-(1-(4-chlorobenzyl)-1H-indole-2-carbonyl)piperidine-4-carboxamide]
NSV titers (virion production, plaque assay) (NSV): significantly reduced | WEEV titers (virion production, plaque assay) (WEEV): significantly reduced | IC50 (WEEV replicon; [2]): 18.6 µM | activity at 2 µM (WEEV replicon; [3]): 88% | activity at 10 µM (WEEV replicon; [4]): 76.9% | activity at 50 µM (WEEV replicon; [5]): 59.7%

C[C@@H](NC(=O)C1CCN(C(=O)c2cc3ccccc3n2Cc2ccc(Cl)cc2)CC1)c1ccccc1 [CCG 203926, (R)-1-(1-(4-chlorobenzyl)-1H-indole-2-carbonyl)-N-(1-phenylethyl)piperidine-4-carboxamide]
cytotoxicity (BSR-T7/C3 clone): relatively low cytotoxicity | NSV titers (virion production, plaque assay) (NSV): significantly reduced | WEEV titers (virion production, plaque assay) (WEEV): significantly reduced | activity in the replicon inhibition assay (in words) (WEEV replicon): active | activity at 2 µM (WEEV replicon; Western equine encephalitis virus, read-out: Activity (% control LUC) 2 μM): 100% | activity at 10 µM (WEEV replicon; Western equine encephalitis virus, read-out: Activity (% control LUC) 10 μM): 55% | activity at 50 µM (WEEV replicon; Western equine encephalitis virus, read-out: Activity (% control LUC) 50 μM): 17% | IC50 (WEEV replicon; [2]): 8.7 µM

O=C(Nc1ccccc1)C1CCN(C(=O)c2cc3ccccc3n2Cc2ccc(Cl)cc2)CC1 [CCG 206334, 1-(1-(4-chlorobenzyl)-1H-indole-2-carbonyl)-N-phenylpiperidine-4-carboxamide]
activity at 50 µM (WEEV replicon; [6]): 77.3%

O=C(NCc1cccc(F)c1)C1CCN(C(=O)c2cc3ccccc3n2Cc2ccc(Cl)cc2)CC1 [CCG 206399, 1-(1-(4-chlorobenzyl)-1H-indole-2-carbonyl)-N-(3-fluorobenzyl)piperidine-4-carboxamide]
activity at 50 µM (WEEV replicon; [6]): 50.4%

C[C@H](NCC1CCN(C(=O)c2cc3ccccc3n2Cc2ccc(F)cc2)CC1)c1ccccc1 [CCG 206501, (S)-(1-(4-fluorobenzyl)-1H-indol-2-yl)(4-(((1-phenylethyl)amino)methyl)piperidin-1-yl)methanone]
IC50 (WEEV replicon; [7]): 8.9 µM | activity at 50 µM (WEEV replicon; [6]): 0%

O=C(NCC1Cc2ccccc2C1)C1CCN(C(=O)c2cc3ccccc3n2Cc2ccc(Cl)cc2)CC1 [CCG 206382, 1-(1-(4-chlorobenzyl)-1H-indole-2-carbonyl)-N-((2,3-dihydro-1H-inden-2-yl)methyl)piperidine-4-carboxamide]
IC50 (WEEV replicon; [7]): 0.53 µM | activity at 50 µM (WEEV replicon; [6]): 25.8%

O=C(NCc1ccccc1)C1CCN(C(=O)c2cc3ccccc3n2Cc2ccc(F)cc2)CC1 [CCG 203880, N-benzyl-1-(1-(4-fluorobenzyl)-1H-indole-2-carbonyl)piperidine-4-carboxamide]
IC50 (WEEV replicon; [2]): 25 µM | activity at 2 µM (WEEV replicon; [3]): 134% | activity at 10 µM (WEEV replicon; [4]): 121% | activity at 50 µM (WEEV replicon; [5]): 67%

O=C(NCc1ccccc1)C1CCN(C(=O)c2cccn2Cc2ccc(Cl)cc2)CC1 [CCG 204054, N-benzyl-1-(1-(4-chlorobenzyl)-1H-pyrrole-2-carbonyl)piperidine-4-carboxamide]
IC50 (WEEV replicon; [2]): 54.6 µM | activity at 2 µM (WEEV replicon; [3]): 110% | activity at 10 µM (WEEV replicon; [4]): 108% | activity at 50 µM (WEEV replicon; [5]): 74.5%

O=C(NCCc1ccncc1)C1CCN(C(=O)c2cc3ccccc3n2Cc2ccc(Cl)cc2)CC1 [CCG 205432, 1-(1-(4-chlorobenzyl)-1H-indole-2-carbonyl)-N-(2-(pyridin-4-yl)ethyl)piperidine-4-carboxamide]
IC50 (WEEV replicon; [7]): 0.53 µM | activity at 50 µM (WEEV replicon; [6]): 3.75%

Cc1cccc(CNC(=O)C2CCN(C(=O)c3cc4ccccc4n3Cc3ccc(Cl)cc3)CC2)c1 [CCG 204042, 1-(1-(4-chlorobenzyl)-1H-indole-2-carbonyl)-N-(3-methylbenzyl)piperidine-4-carboxamide]
IC50 (WEEV replicon; [2]): 9.8 µM | activity at 2 µM (WEEV replicon; [3]): 93.7% | activity at 10 µM (WEEV replicon; [4]): 59.5% | activity at 50 µM (WEEV replicon; [5]): 64.4%

O=C(NCCc1ccncc1)C1CCN(C(=O)c2nc3ccccc3n2Cc2ccc(Cl)cc2)CC1 [CCG 206565, 1-(1-(4-chlorobenzyl)-1H-benzo[d]imidazole-2-carbonyl)-N-(2-(pyridin-4-yl)ethyl)piperidine-4-carboxamide]
IC50 (WEEV replicon; [7]): 4.07 µM | activity at 50 µM (WEEV replicon; [6]): 12%

O=C(c1cc2ccccc2n1Cc1ccc(F)cc1)N1CCC(CN2CCOCC2)CC1 [CCG 206502, (1-(4-fluorobenzyl)-1H-indol-2-yl)(4-(morpholinomethyl)piperidin-1-yl)methanone]
IC50 (WEEV replicon; [7]): 40.6 µM | activity at 50 µM (WEEV replicon; [6]): 39.1%

O=C(c1cc2ccccc2n1Cc1ccc(Cl)cc1)N1CCC(C(=O)N2CCC(c3ccccc3)C2)CC1 (stereo not shown) [CCG 205474, (1-(4-chlorobenzyl)-1H-indol-2-yl)(4-(3-phenylpyrrolidine-1-carbonyl)piperidin-1-yl)methanone]
activity at 50 µM (WEEV replicon; [6]): 57.1%

O=C(c1cc2ccccc2n1Cc1ccc(Cl)cc1)N1CCC(C(=O)N2Cc3ccccc3C2)CC1 [CCG 205470, (1-(4-chlorobenzyl)-1H-indol-2-yl)(4-(isoindoline-2-carbonyl)piperidin-1-yl)methanone]
activity at 50 µM (WEEV replicon; [6]): 51.8%
